According to publication doi:10.1101/2025.03.14.643351, “Dissection of amino acid acquisition pathways in Borrelia burgdorferi uncovers unique physiological responses” (bioRxiv, 2025):

Target: T1, BB0401 (GltPBb) (Borreliella burgdorferi, UniProt O51362)
T1 construct: gene BB_0401; full-length bb0401 ORF, IPTG-inducible from shuttle vector pibb0401 in chromosomal bb0401-deleted B. burgdorferi (bb0401^cond); intact cells; no tag mentioned
Experiment: heavy-isotope uptake into conditional mutant with and without IPTG, LC-MS/MS
Assay type: cell-based
Conditions: BSK-II medium with unlabelled amino acids, 37 C, 2 h or 6 h uptake after 48 h or 7 d without inducer

T1 sequence (O51362 entry or part of it): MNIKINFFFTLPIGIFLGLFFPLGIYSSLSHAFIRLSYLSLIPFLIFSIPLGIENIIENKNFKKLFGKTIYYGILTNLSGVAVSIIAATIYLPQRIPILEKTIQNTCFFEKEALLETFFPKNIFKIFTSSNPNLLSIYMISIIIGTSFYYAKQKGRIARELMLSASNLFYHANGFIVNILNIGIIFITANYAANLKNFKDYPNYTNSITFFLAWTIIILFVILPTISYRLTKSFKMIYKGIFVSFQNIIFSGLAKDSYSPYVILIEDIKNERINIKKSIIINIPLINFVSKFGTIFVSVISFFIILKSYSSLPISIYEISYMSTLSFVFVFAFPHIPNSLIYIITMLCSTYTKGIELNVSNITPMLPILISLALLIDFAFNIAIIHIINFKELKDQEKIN

Row | SMILES | heavy-isotope uptake into conditional mutant with and without IPTG, LC-MS/MS (labelled compound (13C4,15N1), 30 mg/L) | heavy-isotope uptake into conditional mutant with and without IPTG, LC-MS/MS (labelled compound (13C5,15N1), 86.2 mg/L)
1 | N[C@@H](CC(=O)O)C(=O)O [heavy aspartate (^13C4,^15N1)] | more dramatic reduction in the amount of heavy labeled aspartate and glutamate imported | –
2 | N[C@@H](CCC(=O)O)C(=O)O [heavy glutamate (^13C5,^15N1)] | – | more dramatic reduction in the amount of heavy labeled aspartate and glutamate imported
